≈ marks a conversion by molar mass, not a printed value.
Legend:
[1] = tested on: CBA/CaJ thymocytes (irradiated BDF1 splenocyte stimulators); assay: T cell proliferation in mixed leukocyte cultures, CBA/CaJ thymocytes; assay type: cell-based, mouse; conditions: Study 3, responder +, stimulator +
Text: A third and fourth study utilized thymocytes from CBA/CaJ mice as the stimulated (responder) cells, and irradiated BDFl mouse spleen cells as the stimulator cells. Two guanosine derivatives of the present invention, 7a8MGuo and 7a8oGuo, were used for these studies, with 8MGuo serving as positive control for one of the studies.
However, in the presence of interleukin-2 (IL-2), those cells develop responsiveness to allogeneic stimulation. The present studies utilizing thymocytes were therefore carried out in the presence of a co-stimulating amount of IL-2.
(§1) ^1 Plus signs (+) are utilized to indicate the presence of the
(§2) ^3 Allogeneic cells used to costimulate proliferation, after exposure
(§3) T Helper Cell Activation. 1.5×10^5 viable spleen cells from SJL mice or CBA/CaJ mouse thymocytes were cultured with or without an equal number of irradiated (2500 rads) spleen cells from CBA/CaJ or BDFl mice respectively, in 0.2 ml of culture medium in the presence of incremental concentrations of the exemplary 7,8-disubstituted guanine derivatives. The lymphocyte culture medium utilized was that described before, and was further supplemented with 2-mercaptoethanol to a final concentration of 50 uM. Thymocyte cultures also contained 10 percent (v/v) of a concanavalin A-conditioned rat spleen cell medium sold under the name Rat T Cell Monoclone by Collaborative Research. Following 90 hours of culture, one microCurie [^3 H]TdR per culture was admixed, and the resulting culture was maintained for a further six hour time period.
(§4) The cultures were harvested with a Brandel cell harvester (M24V, Biological Research and Development Laboratories, Rockville, Md.) onto glass fiber filter disks. Filter disks were transferred to plastic scintillation vials, covered with liquid scintillation cocktail, and counted in a Beckman LS5700 liquid scintillation counter.

[2] = tested on: SJL splenocytes (irradiated CBA/CaJ splenocyte stimulators); assay: T cell proliferation in mixed leukocyte cultures, SJL splenocytes; assay type: cell-based, mouse; conditions: responder +
Text: In evaluating the effect of a guanosine derivative on alloantigen-induced proliferation, it is imperative to minimize the simultaneous mitogenic response of B cells to contact with a guanosine derivative. Spleen cells from SJL mice (whose B cells are hyporesponsive to the mitogenic effect of a guanosine derivative, but not to its adjuvant activity) were used as responder cells in two studies. Those responder cells were stimulated with irradiated allogenic cells (from CBA/CaJ mice) in the presence of no added nucleoside, incremental amounts of a guanosine derivative of the invention, 7M8oGuo, or with another guanosine derivative, 8MGuo, used as a positive control.
as §1
material of the column heading in the culture medium, whereas minus signs
(-) are utilized to show absence of such a material from the culture
as §2, §3, §4

[3] = tested on: human peripheral blood lymphocytes (sheep red blood cells as antigen); assay: Antigen-specific adjuvanticity: direct anti-SRBC plaque forming cells, human system; assay type: cell-based; conditions: for Peak Direct anti-SRBC PFC/Culture: Table 7, second group
physchem = assay type: physicochemical, human
Text: Solubilities in urine could be expected to be lower than those for water due to the relatively higher salt content in urine than is found in water.
Each sample was filtered through a 5 micron pore-sized filter, diluted as necessary with the HPLC mobile phase, and then quantified by HPLC.

C=CCn1c(=S)n([C@@H]2O[C@H](CO)[C@@H](O)[C@H]2O)c2nc(N)[nH]c(=O)c21 [7a8MGuo, 7-(2-Propenyl)-8-thioxoguanosine]
[3H] TdR Uptake ([1]; 10^-4 M): 21,400 ± 1200 counts per minute
[3H] TdR Uptake ([1]; 10^-5 M): 15,300 ± 600 counts per minute
[3H] TdR Uptake ([1]; 10^-6 M): 11,800 ± 400 counts per minute
[3H] TdR Uptake ([2]; Study 1, stimulator +, 10^-5 M): 67,500 ± 2900 counts per minute
[3H] TdR Uptake ([2]; Study 1, stimulator -, 10^-5 M): 36,700 ± 2400 counts per minute
[3H] TdR Uptake ([2]; Study 2, stimulator +, 10^-5 M): 36,400 ± 3800 counts per minute
[3H] TdR Uptake ([2]; Study 2, stimulator -): 19,100 ± 1100 counts per minute
Peak Direct anti-SRBC PFC/Culture ([3]; person a): 673 PFC/Culture
Peak Direct anti-SRBC PFC/Culture ([3]; person b): 6475 PFC/Culture
Peak Direct anti-SRBC PFC/Culture ([3]; person c): 3058 PFC/Culture
Average 1 Log Plaque Values ([3]; Table 9, human, * = single study): 45,630 ± 28,808 per micromole
solubility in human urine, in words (physchem): relatively insoluble
solubility at 18 h (physchem; human, urine): 300 µg/mL (≈ 844 µM)
